pEC50, pIC50: −log10 of the molar value.
Assays:
[1] = molecular target: T1, biotinylated wild-type menin and MLL-AF9 fusion protein (menin/MLL binding) (Homo sapiens, UniProt O00255); experiment: Assay 1: menin/MLL binding AlphaLISA assay, wild-type menin; conditions: Table 30; column head does not say wild-type or mutated menin
T1 construct: made in house; host or cells: menin: E. coli; MLL-AF9-FLAG: HEK293 cells, used as cleared lysate
T1 sequence (O00255 1-610): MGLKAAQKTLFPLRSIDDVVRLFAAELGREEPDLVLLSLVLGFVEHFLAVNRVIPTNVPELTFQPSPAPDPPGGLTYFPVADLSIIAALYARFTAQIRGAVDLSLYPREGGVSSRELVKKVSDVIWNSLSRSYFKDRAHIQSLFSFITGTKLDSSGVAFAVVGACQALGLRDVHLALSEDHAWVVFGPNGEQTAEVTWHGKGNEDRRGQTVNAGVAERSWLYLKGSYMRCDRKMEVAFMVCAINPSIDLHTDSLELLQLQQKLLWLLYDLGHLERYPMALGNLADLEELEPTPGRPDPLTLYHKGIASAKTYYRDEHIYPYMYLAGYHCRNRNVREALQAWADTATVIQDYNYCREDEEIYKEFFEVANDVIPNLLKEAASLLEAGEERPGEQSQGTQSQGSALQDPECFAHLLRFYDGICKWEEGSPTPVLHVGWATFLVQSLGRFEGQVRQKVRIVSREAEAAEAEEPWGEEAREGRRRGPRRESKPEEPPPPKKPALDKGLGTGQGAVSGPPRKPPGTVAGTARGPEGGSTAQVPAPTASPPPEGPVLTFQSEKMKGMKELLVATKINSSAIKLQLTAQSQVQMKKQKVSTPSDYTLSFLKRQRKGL
In short: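 Compound was preincubated 30 min at room temperature with biotinylated menin (5 nM) and MLL-AF9-FLAG lysate from HEK293 cells, pH 7.4 buffer with 5% DMSO and DTT. Bead-based Alpha signal after 60 min with streptavidin donor and anti-FLAG acceptor beads; four-parameter logistic fit gave IC50.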

[2] = tested on: human acute monocytic leukemia cell line MV-4-11; experiment: Assay 2: cell proliferation assay (ATP quantitation, CellTiter-Glo), MV-4-11; assay type: cell-based; conditions: Homo sapiens, MV4-11, 72 h, MV-4-11 cells
In short: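 Read-out is CellTiter-Glo luminescence quantifying ATP. Compound exposure lasted 72 h at 37° C., 5% CO2, with 1.67×10^4 MV-4-11 cells per well in 10% FBS medium, alongside HL-60 toxicity-control cells.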

Structure (SMILES)	pIC50 [1]	pEC50 [2]
CC(C)N(C(=O)c1cc(F)ccc1Oc1cncnc1N1CCC2(CCN(Cc3ccc4[nH]c(=O)[nH]c4c3)C2)C1)C1CC1 (stereo not drawn) [Example 122, N-cyclopropyl-5-fluoro-N-isopropyl-2-((4-(7-((2-oxo-2,3-dihydro-1H-benzo[d]imidazol-5-yl)methyl)-2,7-diazaspiro[4.4]nonan-2-yl)pyrimidin-5-yl)oxy)benzamide]	> 7.00	> 7.00
CC(C)N(C(=O)c1cc(F)ccc1Oc1cncnc1N1CC2(CN(CC[C@H]3CC[C@H](NC(=O)C(C)(C)C)CC3)C2)C1)C(C)C [Example 105, 5-fluoro-N,N-diisopropyl-2-((4-(6-(2-((1r,4r)-4-pivalamidocyclo-hexyl)ethyl)-2,6-diazaspiro[3.3]heptan-2-yl)pyrimidin-5-yl)oxy)benzamide]	> 7.00	> 7.00
N[C@H]1CC[C@H](CCN2CC3(C2)CN(c2ncncc2Oc2ccc(F)cc2-c2cccnc2C2CC2)C3)CC1 [Example 82, (1r,4r)-4-(2-(6-(5-(2-(2-cyclopropylpyridin-3-yl)-4-fluorophenoxy)pyrimidin-4-yl)-2,6-diazaspiro[3.3]heptan-2-yl)ethyl)cyclohexan-1-amine]	> 7.00	6.00 to 7.00
CC(C)N(C(=O)c1cc(F)ccc1Oc1cncnc1N1CC2(CCN(C3CCc4cc(F)ccc4C3)C2)C1)C(C)C (stereo not drawn) [Example 114, 5-fluoro-2-((4-(6-(6-fluoro-1,2,3,4-tetrahydronaphthalen-2-yl)-2,6-diazaspiro[3.4]octan-2-yl)pyrimidin-5-yl)oxy)-N,N-diisopropylbenzamide]	> 7.00	6.00 to 7.00
CC(C)N(C(=O)c1cc(F)ccc1Oc1cncnc1N1CC2(CCN(CC3CCC4(CC3)OCCO4)CC2)C1)C(C)C [Example 100, 2-((4-(7-((1,4-dioxaspiro[4.5]decan-8-yl)methyl)-2,7-diazaspiro[3.5]nonan-2-yl)pyrimidin-5-yl)oxy)-5-fluoro-N,N-diisopropylbenzamide]	> 7.00	6.00 to 7.00
CC(C)C(O)c1cc(F)ccc1Oc1cncnc1N1CCC2(CCN(Cc3ccc4c(c3)NC(=O)C4(C)C)C2)C1 (stereo not drawn) [Example 10, 6-((7-(5-(4-fluoro-2-(1-hydroxy-2-methylpropyl)phenoxy)pyrimidin-4-yl)-2,7-diazaspiro[4.4]nonan-2-yl)methyl)-3,3-dimethylindolin-2-one]	> 7.00	≤ 6.00
CC(C)N(C(=O)c1cc(F)ccc1Oc1cncnc1N1CCC2(CCN(Cc3ccc4c(c3)[nH]c(=O)n4CCO)C2)C1)C(C)C (single isomer, unassigned) [Example 3A, 5-fluoro-2-((4-(7-((1-(2-hydroxyethyl)-2-oxo-2,3-dihydro-1H-benzo[d]imidazol-5-yl)methyl)-2,7-diazaspiro[4.4]nonan-2-yl)pyrimidin-5-yl)oxy)-N,N-diisopropylbenzamide]	> 7.00	> 7.00
O=C(O)c1ccc(-c2cc(F)ccc2Oc2cncnc2N2CCC3(CCN(Cc4ccc5[nH]c(=O)[nH]c5c4)C3)C2)c(C2CC2)c1 (stereo not drawn) [Example 44, 2-cyclopropyl-5′-fluoro-2′-((4-(7-((2-oxo-2,3-dihydro-1H-benzo[d]imidazol-5-yl)methyl)-2,7-diazaspiro[4.4]nonan-2-yl)pyrimidin-5-yl)oxy)-[1,1′-biphenyl]-4-carboxylic acid]	> 7.00	6.00 to 7.00
CC(C)N(C)C(=O)c1cc(F)ccc1Oc1cncnc1N1CCC2(CCN(Cc3ccc4c(C#N)n[nH]c4c3)C2)C1 (stereo not drawn) [Example 146, 2-((4-(7-((3-cyano-1H-indazol-6-yl)methyl)-2,7-diazaspiro[4.4]nonan-2-yl)pyrimidin-5-yl)oxy)-5-fluoro-N-isopropyl-N-methylbenzamide]	> 7.00	6.00 to 7.00

Reference: patent US12312359B2 (Vitae Pharmaceuticals, LLC, priority 2016, dated 2025)
